In PMC7587528:
Entries after “also recorded” stand apart in the source; their conditions may differ. Like-named read-outs stand apart in the source and are kept apart here.

What was measured:
apo-myoglobin = conditions: in solution, ref [23], cited from earlier work
Source text: In solution, the bi-molecular association of the heme group to apo-myoglobin is thought to follow a bimodal process. Association of heme to (partially unfolded) apo-myoglobin is fast (kA ~10^8 M^−^1·s^−^1), followed by a slower structural re-arrangement (k ~500 s^−^1) to generate natively-folded holo-myoglobin (at pH 7) in which the iron atom of the heme group is then primarily coordinated by His93 [23]. Accordingly, in-solution affinity of at least partially unfolded apo-myoglobin to the heme prosthetic group has been characterized as rather strong and the complex consisting of both compone ...

[1] = system: antiTroponin I antibody [MF4]; experiment: ITEM-TWO nanoESI-MS collision induced dissociation: Troponin I peptide-antiTroponin I antibody complex (gas phase); assay type: binding
Source text: At last, we performed ITEM-TWO experiments with an epitope peptide that was derived from human cardiac Troponin I (Tn I) against which was directed a monoclonal antiTroponin I antibody (antiTn I). Generation of the immune complex in solution and subsequent electrospraying of the entire mixture started data acquisition with the respective instrument settings as mentioned (for details see Methods section). […] Again, upon raising the collision cell voltage difference there appeared isotopically resolved ions in the low m/z range of the mass spectrum for the Troponin I epitope peptide (see insert in Figure 7) which were recorded with high mass accuracy (7 ppm).
Again, plotting norm (educts) vs. ΔCV produced a sigmoidal shaped course which represented the dependence of educt intensity on ΔCV following Boltzmann characteristics (Supplemental Figure S7). The y-axis values on the tangent line, i.e., norm (educts) , enabled to calculate ln kmg# values. […] This Arrhenius plot again provided lnA (pre-exponential factor) as the intercept with the y-axis and − ΔGmg#/R as the slope of the line (Supplemental Figure S8). In the same manner as described above, the value for km0g# was calculated. Similarly, by applying the Eyring-Polanyi equation KD m0g# was determined.
The human cardiac Troponin I epitope peptide (ENREVGDWRKNIDAL; peptides&elephants, Hennigsdorf, Germany) was obtained as lyophilized powder. The peptide was dissolved in 200 mM ammonium acetate buffer, pH 7, to obtain a peptide concentration of 1.31 µg/µL. The antiTroponin I antibody [MF4] (product code ab38210; Abcam, Cambridge, UK) was obtained dissolved in PBS buffer, pH 7.4. […] Then 200 mM ammonium acetate buffer, pH 7, were added to reach a volume of 500 µL. The solution was centrifuged at 13,000 rpm for 10 min. The filtrate was discarded. To the retentate on the filter (ca. 30 µL) 470 µL of 200 mM ammonium acetate buffer, pH 7, were added to reach a total volume of 500 µL. The solution was centrifuged again. This centrifugation/re-filling procedure was repeated eight times. After the last spinning, the filter unit was inverted into a new vial and was centrifuged at 4500 rpm for 5 min to collect the retentate (52 µL). Protein concentration was determined to be 0.33 µg/µL using the Qubit^TM 2.0 Fluorometer (Carlsbad, CA, USA) assay. […] The immune complex-containing mixture was incubated at room temperature for at least 1 h. For each measurement, 3 µL of antibody-peptide complex-containing solution were loaded into nanoESI capillaries using a microloader pipette tip (Eppendorf, Hamburg, Germany).
The m/z axis was calibrated using 1 mg/mL sodium iodide dissolved in an isopropanol/water solution (50:50, v/v). […]

holo-myoglobin = conditions: gas phase, ref [19], cited from earlier work
Source text: In that investigation, heme dissociation kinetics was studied (i) by spraying solutions with pH 5 and (ii) by looking at selected charge state pairs (e.g., 8+ protonated holo-myoglobin and 7+ charged apo-myoglobin). Activation energies ranged from 73 kJ/mol to 106 ...

[2] = system: holo-myoglobin (apo-myoglobin—heme complex); experiment: ITEM-TWO nanoESI-MS collision induced dissociation: heme loss from holo-myoglobin (gas phase); assay type: binding
Experimental: The mass spectral data obtained from electrospraying myoglobin (the holo-myoglobin complex consists of apo-myoglobin plus heme) were collected by following the ITEM-TWO protocol (see Methods section for in-solution handling and data acquisition steps). The ESI mass spectrum of myoglobin (Figure 4) provides an ion series of multiply charged ions from which a mean charge state of 8.1+ and an average mass of 17,566.95 ± 0.46 Da is calculated for holo-myoglobin. After having electrosprayed the myoglobin solution, and upon having switched on the collision gas and having increased the collision cell voltage difference ( ΔCV ) in a step-wise manner (5–20 V/step), dissociation of holo-myoglobin complexes caused appearance of complex-released heme ions (ligands) in the low mass ranges of the mass spectra (Supplemental Table S1). […] The m/z value of the ion that appeared in the low mass range ([heme]+) was 616.21 and corresponded precisely to the calculated values for singly protonated [heme]+ (m/z 616.18), resulting in a mass accuracy of 48 ppm.
Mean charge states of holo-myoglobin ions (m+), apo-myoglobin (n+) and heme (p+) as well as apex heights (holo-myoglobin ions (h, educts), heme ions (i, product), and apo-myoglobin ions (j, product) were extracted (Supplemental Table S2) from the triplicate measurements, averaged and normalized. For each ΔCV setting one spectrum was generated (Figure 4) and analyzed semi-quantitatively by determining Gaussian fits for all molecular/supra-molecular ion species.
All the y-values from the tangent line of the steep decline that fall within the 2dx interval around ΔCV50 are used for the calculation of ln kmg# values which are then used in the Arrhenius plot (Supplemental Figure S2). […] Then, ΔGm0g# is calculated using the van´t Hoff equation (Table 1).
A stock solution was first prepared by dissolving 5.22 mg of myoglobin (lot # 60K7007, Sigma-Aldrich, Steinheim, Germany) in 1 mL of 200 mM ammonium acetate. […] The concentration of the resulting solution was determined to be 0.5 µg/µL using a QubitTM 2.0 Fluorometer (Carlsbad, California, USA). […]

[3] = "neutral and resting" complex, gas phase, Arrhenius extrapolation to 298 K (ΔCV = 0)

In the case of `C=CC1=C(C)c2cc3[n-]c(cc4[n-]c(cc5nc(cc1n2)C(C)=C5C=C)c(C)c4CCC(=O)O)c(CCC(=O)O)c3C.[Fe+2]` [heme], the “k of slower structural re-arrangement to natively-folded holo-myoglobin” value (apo-myoglobin; pH 7) is listed as ~ 500 s^−^1 and the “kA association of heme to (partially unfolded) apo-myoglobin” value (apo-myoglobin) is listed as ~ 10^8 M^−^1·s^−^1.

With “ENREVGDWRKNIDAL [troponin I, peptides&elephants)]” the “km0g# apparent rate constant of dissociation” value (“km0g# apparent rate constant” below) [1, 3] was 2.2 × 10 ^12 1/s, the “∆CV50” value ([1]; collision cell voltage difference at center of Boltzmann fit of normalized educt intensity, Synapt G2S, peptide to antibody 2.2:1, 200 mM ammonium acetate pH 7, two determinations) was 26.4 V and the dx ([1]; half of x-axis interval (2dx) of steepest educt decline in Boltzmann fit, Synapt G2S, two determinations) was 15.9 V. The “binding stoichiometry, peptides bound per antibody” value ([1]; high mass range ion triplets, charge states 23+ to 28+, listed as Troponin I epitope peptide) was “one bound Troponin I epitope peptide; also recorded: two bound Troponin I epitope peptides”.

In the case of DYKDDDDK [FLAG], the “km0g# apparent rate constant” value (antiFLAG M2 antibody; [3]) is reported as 7.9 × 10 ^10 1/s, the “∆CV50” value (antiFLAG M2 antibody; collision cell voltage difference at center of Boltzmann fit of normalized educt intensity, peptide to antibody 2.2:1, 200 mM ammonium acetate pH 7, three determinations) is reported as 89.0 V and the dx (antiFLAG M2 antibody; half of x-axis interval (2dx) of steepest educt decline in Boltzmann fit, three determinations) is reported as 19.8 V. The “binding stoichiometry, peptides bound per antibody” value (antiFLAG M2 antibody; high mass range ion triplets, charge states 21+ to 27+, mixture of seven peptides, listed as FLAG peptide) was “one bound FLAG peptide; also recorded: two bound FLAG peptides” and the “peptide released from antiFLAG antibody complex (epitope identification)” value (antiFLAG M2 antibody; mixture of seven peptides with antiFLAG antibody, 200 mM ammonium acetate pH 7, raised collision cell voltage) was “only released the FLAG peptide”.

B1: myoglobin: holo-myoglobin complex consists of apo-myoglobin plus heme; lot # 60K7007, Sigma-Aldrich (protein, UniProt P68082 2-154, looked up)
Myoglobin: GLSDGEWQQVLNVWGKVEADIAGHGQEVLIRLFTGHPETLEKFDKFKHLKTEAEMKASEDLKKHGTVVLTALGGILKKKGHHEAELKPLAQSHATKHKIPIKYLEFISDAIIHVLHSKHPGDFGADAQGAMTKALELFRNDIAAKYKELGFQG
modifications: heme
notes: holo-myoglobin complex consists of apo-myoglobin plus heme; lot # 60K7007, Sigma-Aldrich
In the case of B1, the “activation energy for heme dissociation” value (holo-myoglobin; 9+ protonated holo-myoglobin) is given as 92 kJ/mol, the “activation energy for heme dissociation” value (holo-myoglobin; 10+ protonated holo-myoglobin) is given as 85 kJ/mol and the “km0g# apparent rate constant” value [2, 3] is given as 5.1 × 10 ^9 1/s. For the same molecule, the “∆CV50” value ([2]; collision cell voltage difference at center of Boltzmann fit of normalized educt intensity, Q-TOF 2, 200 mM ammonium acetate pH 7, triplicate) was 44.0 V and the dx ([2]; half of x-axis interval (2dx) of steepest educt decline in Boltzmann fit, Q-TOF 2, triplicate) was 8.5 V.
